Like-named read-outs stand apart in the source and are kept apart here.
Legend:
Assay type in all cases: cell-based
[1] = system: S. cerevisiae; experiment: Kirby–Bauer disk diffusion assay on IL-containing YPD plates; settings: 100 = no growth on plate
Method: (§1) Assessment of fungal growth on YPD plates with AFs + ILs served as an indicator for the combined efficacy of treatment of ILs and AFs. YPD agar plates were made with addition of increasing concentrations of [HMIM]Cl at 0, 2.5, 6.25, and 25 mM or [OMIM]Cl at 0, 0.25, 0.625, and 2.5 mM. Plates solidified and dried on bench for 24 h before use. IN total, 400 μL of S. cerevisiae or C. albicans liquid culture at mid-log phase OD600 0.5 was spread using sterile glass beads to achieve even distribution. Following addition of culture, the plates were allowed to dry for 30 min before the addition of antifungal disks. Antifungal-infused disks were prepared using the stock solutions of solubilized antibiotics; 15 μL of each of the 4 azole antifungals at stock concentrations was pipetted onto a sterile 6 mm cellulose disk (BD). […] After plate drying was complete, sterile forceps were used to transfer the disks to the media, and the plate was grown upright in an incubator overnight at 30 °C. The following day, photographs were taken of the plates to visualize the zone of inhibition (ZOI) created by the combined treatment. Adobe Illustrator 2023 CC was used to perform digital measurements of ZOI diameters.
(§2) To assess the potential for combinatorial effects of ILs and AFs in yeast, Kirby–Bauer disk diffusion assays were performed for C. albicans and S. cerevisiae for [HMIM]Cl and [OMIM]Cl with all four AFs. […] The addition of 6 mm cellulose disks infused with equal volumes of solubilized AFs to the plates occurred after plating of C. albicans or S. cerevisiae, allowing for growth for 48 h at 23 °C, at which point the plates were evaluated for the establishment of zones of inhibition (ZOI). Digital pictures were acquired of all plates, and measurements of ZOI diameter were performed digitally as described in the Methods. […] With progressively increasing amounts of both [HMIM]Cl and [OMIM]Cl, ZOIs increased for all Afs, including Fluconazole and Itraconazole, which appear to be ineffective without IL in the Kirby–Bauer disk assay. Experiments were performed in triplicate and ZOIs were measured for all plates.
Similar experiments testing the combinatorial effects of [HMIM]Cl or [OMIM]Cl were performed on S. cerevisiae using Kirby–Bauer disk assays and quantified for changes in ZOI (Appendix Figure A1). ZOI measurements (mm) from both C. albicans and S. cerevisiae were compiled, and the averages are shown numerically as well as with shading and plotted in Figure 3. […] Finally, at intermediate concentrations of both [HMIM]Cl and [OMIM]Cl, a combinatorial effect of IL + AF was evident for all four AFs in S. cerevisiae, similar to observations in C. albicans.

[2] = system: C. albicans; experiment: as above; settings: for inhibition of C. albicans growth around disk: absence of added IL
Method: as §1, §2

[3] = system: S. pombe; experiment: MIC50 by microbroth dilution; settings: Schizosaccharomyces pombe
Method: (§3) A single colony was picked from each streak to prepare overnight in 5 mL fresh YPD broth and placed into a tilted rotating incubator set at 30 °C and 40 rpm overnight. After ~16–20 h, a fresh dilution in media (1:200) was made and used for the experiment. […] Finally, diluted culture was added to each well of a sterile 96-well plate containing serially diluted aliquots of each RTIL to a total volume of 100 µL. The plate was incubated at 30 °C overnight with shaking for 24 and 48 h. At both timepoints, the yeast was manually resuspended in the plate by pipetting and we measured the OD600 using a Spectramax M5 multimode plate reader (Molecular Devices, San Jose, CA, USA).
(§4) The four species of yeast tested included three common lab strains of non-pathogenic yeast strains, S. boulardii, S. cerevisiae, and S. pombe, and one common human pathogen, C. albicans.

[4] = system: S. boulardii; experiment: MIC50 by microbroth dilution; settings: Saccharomyces cerevisiae
Method: as §3, §4

[5] = system: C. albicans; experiment: MIC50 by microbroth dilution; settings: Candida albicans, 48 h
Method: as §3, §4

[6] = system: S. cerevisiae; experiment: MIC50 by microbroth dilution; settings: Saccharomyces cerevisiae
Method: as §3, §4

[7] = 50% growth after 48 h in YPD media, OD600, read-out: MIC50

## CCC(C)n1ncn(-c2ccc(N3CCN(c4ccc(OCC5COC(Cn6cncn6)(c6ccc(Cl)cc6Cl)O5)cc4)CC3)cc2)c1=O (stereo not shown) [Itraconazole]
[1]; [HMIM]Cl 0 mM in plate
  Zone of inhibition (ZOI) diameter: 8 mm
[1]; [HMIM]Cl 2.5 mM in plate
  Zone of inhibition (ZOI) diameter: 9.33 mm
[1]; [HMIM]Cl 6.25 mM in plate
  Zone of inhibition (ZOI) diameter: 14 mm
[1]; [HMIM]Cl 25 mM in plate
  Zone of inhibition (ZOI) diameter: 100 mm
[1]; [OMIM]Cl 0 M in plate
  Zone of inhibition (ZOI) diameter: 8 mm
[1]; [OMIM]Cl 0.25 mM in plate
  Zone of inhibition (ZOI) diameter: 9 mm
[1]; [OMIM]Cl 0.625 mM in plate
  Zone of inhibition (ZOI) diameter: 21.67 mm
[1]; [OMIM]Cl 2.5 mM in plate
  Zone of inhibition (ZOI) diameter: 100 mm
[2]; [HMIM]Cl 0 mM in plate
  Zone of inhibition (ZOI) diameter: 0 mm
[2]; [HMIM]Cl 2.5 mM in plate
  Zone of inhibition (ZOI) diameter: 0 mm
[2]; [HMIM]Cl 6.25 mM in plate
  Zone of inhibition (ZOI) diameter: 12.67 mm
[2]; [HMIM]Cl 25 mM in plate
  Zone of inhibition (ZOI) diameter: 16 mm
[2]; [OMIM]Cl 0 M in plate
  Zone of inhibition (ZOI) diameter: 0 mm
[2]; [OMIM]Cl 0.25 mM in plate
  Zone of inhibition (ZOI) diameter: 0 mm
[2]; [OMIM]Cl 0.625 mM in plate
  Zone of inhibition (ZOI) diameter: 16.33 mm
[2]; [OMIM]Cl 2.5 mM in plate
  Zone of inhibition (ZOI) diameter: 26.33 mm
[2]
  inhibition of C. albicans growth around disk: no inhibition
[3]; [7]
  MIC50: 0.5 µg/mL
[4]; [7]
  MIC50: 0.5 µg/mL
[5]; [7]
  MIC50: 1 µg/mL
[6]; [7]
  MIC50: 0.5 µg/mL

## CC(=O)N1CCN(c2ccc(OCC3COC(Cn4ccnc4)(c4ccc(Cl)cc4Cl)O3)cc2)CC1 (stereo not shown) [Ketoconazole]
[1]; [HMIM]Cl 0 mM in plate
  Zone of inhibition (ZOI) diameter: 25 mm
[1]; [HMIM]Cl 2.5 mM in plate
  Zone of inhibition (ZOI) diameter: 27.33 mm
[1]; [HMIM]Cl 6.25 mM in plate
  Zone of inhibition (ZOI) diameter: 63 mm
[1]; [HMIM]Cl 25 mM in plate
  Zone of inhibition (ZOI) diameter: 100 mm
[1]; [OMIM]Cl 0 M in plate
  Zone of inhibition (ZOI) diameter: 25 mm
[1]; [OMIM]Cl 0.25 mM in plate
  Zone of inhibition (ZOI) diameter: 29.67 mm
[1]; [OMIM]Cl 0.625 mM in plate
  Zone of inhibition (ZOI) diameter: 57.33 mm
[1]; [OMIM]Cl 2.5 mM in plate
  Zone of inhibition (ZOI) diameter: 100 mm
[2]; [HMIM]Cl 0 mM in plate
  Zone of inhibition (ZOI) diameter: 13.67 mm
[2]; [HMIM]Cl 2.5 mM in plate
  Zone of inhibition (ZOI) diameter: 17 mm
[2]; [HMIM]Cl 6.25 mM in plate
  Zone of inhibition (ZOI) diameter: 29 mm
[2]; [HMIM]Cl 25 mM in plate
  Zone of inhibition (ZOI) diameter: 47.67 mm
[2]; [OMIM]Cl 0 M in plate
  Zone of inhibition (ZOI) diameter: 13.67 mm
[2]; [OMIM]Cl 0.25 mM in plate
  Zone of inhibition (ZOI) diameter: 19.33 mm
[2]; [OMIM]Cl 0.625 mM in plate
  Zone of inhibition (ZOI) diameter: 28 mm
[2]; [OMIM]Cl 2.5 mM in plate
  Zone of inhibition (ZOI) diameter: 57.33 mm
[2]
  inhibition of C. albicans growth around disk: minimal inhibition
[3]; [7]
  MIC50: 0.5 µg/mL
[4]; [7]
  MIC50: 0.5 µg/mL
[5]; [7]
  MIC50: 1 µg/mL
[6]; [7]
  MIC50: 0.5 µg/mL

## OC(Cn1cncn1)(Cn1cncn1)c1ccc(F)cc1F [Fluconazole]
[1]; [HMIM]Cl 0 mM in plate
  Zone of inhibition (ZOI) diameter: 34 mm
[1]; [HMIM]Cl 2.5 mM in plate
  Zone of inhibition (ZOI) diameter: 36 mm
[1]; [HMIM]Cl 6.25 mM in plate
  Zone of inhibition (ZOI) diameter: 43.33 mm
[1]; [HMIM]Cl 25 mM in plate
  Zone of inhibition (ZOI) diameter: 100 mm
[1]; [OMIM]Cl 0 M in plate
  Zone of inhibition (ZOI) diameter: 34 mm
[1]; [OMIM]Cl 0.25 mM in plate
  Zone of inhibition (ZOI) diameter: 37.33 mm
[1]; [OMIM]Cl 0.625 mM in plate
  Zone of inhibition (ZOI) diameter: 69 mm
[1]; [OMIM]Cl 2.5 mM in plate
  Zone of inhibition (ZOI) diameter: 100 mm
[2]; [HMIM]Cl 0 mM in plate
  Zone of inhibition (ZOI) diameter: 0 mm
[2]; [HMIM]Cl 2.5 mM in plate
  Zone of inhibition (ZOI) diameter: 0 mm
[2]; [HMIM]Cl 6.25 mM in plate
  Zone of inhibition (ZOI) diameter: 31.33 mm
[2]; [HMIM]Cl 25 mM in plate
  Zone of inhibition (ZOI) diameter: 47.33 mm
[2]; [OMIM]Cl 0 M in plate
  Zone of inhibition (ZOI) diameter: 0 mm
[2]; [OMIM]Cl 0.25 mM in plate
  Zone of inhibition (ZOI) diameter: 0 mm
[2]; [OMIM]Cl 0.625 mM in plate
  Zone of inhibition (ZOI) diameter: 29.33 mm
[2]; [OMIM]Cl 2.5 mM in plate
  Zone of inhibition (ZOI) diameter: 70.33 mm
[2]
  inhibition of C. albicans growth around disk: no inhibition
[3]; [7]
  MIC50: 4 µg/mL
[4]; [7]
  MIC50: 4 µg/mL
[5]; [7]
  MIC50: 8 µg/mL
[6]; [7]
  MIC50: 4 µg/mL

## CCn1cc[n+](C)c1 [[EMIM]Cl, 1-ethyl-3-methylimidazolium chloride]
[3]; 48 h
  MIC50: 50 mM
[4]; 48 h
  MIC50: 25 mM
[5]
  MIC50: > 100 mM
[6]; 48 h
  MIC50: 50 mM
